We go through three compounds from publication PMC9693145, “Optimization of Extraction Conditions and Cytotoxic Activity of Rapanone in Comparison to Its Homologue, Embelin” (Molecules, 2022).

In assay [1] the test system is HT29 colorectal adenocarcinoma. Kind of assay: LDH cytotoxicity assay, HT29 cells. Type of assay: cell-based. The note with it: Homo sapiens. From the text:
(§1) In the study, […] human cancer and normal cell lines were used. They were grouped as follows: prostate panel (prostate carcinoma Du145, derived from the metastatic site: brain, ATCC HTB-81; grade IV prostate carcinoma, PC3, derived from the metastatic site: bone, ATCC CRL-1435; prostate epithelial cells PNT2, ECACC 95012613), gastrointestinal panel (colorectal adenocarcinomas Caco2, ATCC HTB-37, and HT29, ATCC HTB-38; hepatocellular carcinoma HepG2, ATCC HB-8065), thyroid panel (follicular thyroid carcinoma FTC133, ECACC 94060901; undifferentiated thyroid carcinoma 8505C, ECACC 94090184). Cells were grown at 37 °C in a 5% CO2 atmosphere, with relative humidity, with culture medium DMEM/F12 (PC3, PNT2, FTC133, 8505C, HT29, and HepG2), DMEM low glucose (Du145), MEM with NEAA (Caco-2), supplemented with 10% fetal bovine serum (FBS), and appropriate antibiotics. Cells were seeded in 96-well plates (1.5 × 10^4 cells/well) and kept for 24 and 48 h. Subsequently, the culture medium was replaced with a fresh medium containing different concentrations of the tested substances from 4 to 50 µg/mL and the cells were incubated for 24 and 48 h. As a reference drug, doxorubicin was used. Cell viability was examined using the LDH assay, as previously described. The absorbance was measured at 490 nm (the reference wavelength 600 nm) with a Biotek Synergy microplate reader. Each experiment was performed in triplicate. Cytotoxicity of the samples was measured using the formula: %cytotoxicity=Asample−Aspont/Amax−Aspont×100 where: • Asample is the absorbance value for cells treated with the tested substances • Aspont is the value for spontaneous LDH release • Amax the value in cells lysed in the presence of Triton X100 • The half-maximal effective concentration value IC50, defined as the substance concentration necessary to obtain 50% of dead cells, was determined.
(§2) In the study evaluating optimization extraction conditions, the outlying values of rapanone amount in each set of parameters were removed. Thirty-two outlier values were determined using “Extreme Outlier” software (MP System Co., Kraków, Poland), with an algorithm implemented by Shoemaker and based on a robust technique proposed by Tukey. The ANOVA procedure was used to assess the impact of changing individual parameters on the amount of rapanone obtained in various extraction systems. The same statistical procedure was used to determine the regression coefficients of the primary parameters in the respective multinomial models (describing the relationship between the amount of rapanone and the experimental conditions) and to establish the statistical significance of these coefficients. […] The results with the highest number of differences were chosen as representing the combinations of parameters, (i.e., the particular variants of experimental systems), that were used giving the highest efficacy of the extraction process. IC50 values in cytotoxicity analysis were estimated using GraphPad 5 Prism. A comparison of the means in a cytotoxicity analysis was performed using one-way ANOVA followed by a posthoc Tukey test.

For assay [2], the system named is Caco-2 colorectal adenocarcinoma. As to the kind of experiment: LDH cytotoxicity assay, Caco-2 cells. Type of assay: cell-based, human. The note with it: for IC50: Homo sapiens.
Text: as §1, §2

Assay [3] relates to PNT2 prostate epithelial cells. Kind of assay: LDH cytotoxicity assay, PNT2 cells. The note with it: for mean percentage of dead PNT2 cells: 10 μg/mL, 24 h of incubation; for IC50: Homo sapiens, PNT2 normal prostate epithelial cells, LDH assay. Type of assay: cell-based, human.
Text: as §1, §2

The subject of assay [4] is Du145 prostate carcinoma. As to the kind of experiment: LDH cytotoxicity assay, Du145 cells. Type of assay: cell-based, human. The conditions noted are these: for mean percentage of dead Du145 cells: 10 μg/mL, 24 h of incubation; for IC50: Homo sapiens, DU-145, LDH assay.
Text: as §1, §2

In assay [5] the test system is PC3. The note with it: cited from earlier work.
For assay [6], the system named is undifferentiated thyroid carcinoma 8505C. As to the kind of experiment: LDH cytotoxicity assay, 8505C cells. Type of assay: cell-based. The conditions noted are these: Homo sapiens.
Text: as §1, §2

For assay [7], the system named is PC3 grade IV prostate carcinoma. As to the kind of experiment: LDH cytotoxicity assay, PC3 cells. The conditions noted are these: Homo sapiens. Type of assay: cell-based.
Text: as §1, §2

Assay [8] concerns follicular thyroid carcinoma FTC133. Kind of assay: LDH cytotoxicity assay, FTC133 cells. Type of assay: cell-based. The conditions noted are these: Homo sapiens.
Text: as §1
(§3) In the study evaluating optimization extraction conditions, the outlying values of rapanone amount in each set of parameters were removed. Thirty-two outlier values were determined using “Extreme Outlier” software (MP System Co., Kraków, Poland), with an algorithm implemented by Shoemaker and based on a robust technique proposed by Tukey. The ANOVA procedure was used to assess the impact of changing individual parameters on the amount of rapanone obtained in various extraction systems. The same statistical procedure was used to determine the regression coefficients of the primary parameters in the respective multinomial models (describing the relationship between the amount of rapanone and the experimental conditions) and to establish the statistical significance of these coefficients. […]

The test system of assay [9] is Du145. Also noted: method as in earlier work. The conditions noted are these: castration-resistant prostate cancer cells Du145; read-out: IC50 inhibition of proliferation, Du145; cited from earlier work.
In assay [10] the test system is HepG2 hepatocellular carcinoma. As to the kind of experiment: LDH cytotoxicity assay, HepG2 cells. Type of assay: cell-based. The conditions noted are these: Homo sapiens.
Text: as §1, §3

The subject of assay [11] is HT29 cells. The conditions noted are these: cited from earlier work.
On the set-up of assay [12]: method as in PMID 26252009. The conditions noted are these: EZ-CyTox kit, cell line not stated, cited from earlier work.
Where [13] appears, read: HT-29, HT29, 24 h incubation, read-out: IC50 HT29 24 h.
The mark [14] stands for this setting: Caco-2, 24 h, Caco-2, 24 h incubation, read-out: IC50 Caco-2 24 h.
Where [15] appears, read: 24 h incubation, read-out: IC50 PNT2 24 h.
Setting [16] is: Du145, 24 h incubation, read-out: IC50 Du145 24 h.
[17] abbreviates: 24 h incubation, read-out: IC50 8505C 24 h.
[18] abbreviates: PC-3, PC3, 24 h incubation, read-out: IC50 PC3 24 h.
The mark [19] stands for this setting: FTC-133, FTC133, 24 h incubation, read-out: IC50 FTC133 24 h.
Setting [20] is: FTC-133, FTC133, 48 h incubation, read-out: IC50 FTC133 48 h.
Where [21] appears, read: HT-29, HT29, 48 h incubation, read-out: IC50 HT29 48 h.
The mark [22] stands for this setting: Caco-2, 48 h, Caco-2, 48 h incubation, read-out: IC50 Caco-2 48 h.
Setting [23] is: 48 h incubation, read-out: IC50 PNT2 48 h.
[24] abbreviates: HepG2, 24 h incubation, read-out: IC50 HepG2 24 h.
The mark [25] stands for this setting: HepG2, 48 h incubation, read-out: IC50 HepG2 48 h.
[26] abbreviates: Du145, 48 h incubation, read-out: IC50 Du145 48 h.
Where [27] appears, read: 48 h incubation, read-out: IC50 8505C 48 h.
The mark [28] stands for this setting: PC-3, PC3, 48 h incubation, read-out: IC50 PC3 48 h.

The structures appear in SMILES notation. Values after ≈ are worked out from the molar mass of the structure shown. Where two headings read alike, the source gives them in different places.

Consider `COc1cccc2c1C(=O)c1c(O)c3c(c(O)c1C2=O)C[C@@](O)(C(=O)CO)C[C@@H]3O[C@H]1C[C@H](N)[C@H](O)[C@H](C)O1` [Doxorubicin], for which the IC50 is 1.53 µg/mL in assay [1] (setting [13]); 3.44 µg/mL in assay [2] (setting [14]); 1.38 µg/mL in [3] (setting [15]); 3.18 µg/mL in [4] (setting [16]); above 40 µg/mL in [6] (setting [17]); above 50 µg/mL in [7] (setting [18]). Further, the “mean percentage of dead PNT2 cells” value in assay [3] stood at 99.21%. Moreover, the “mean percentage of dead Du145 cells” value in assay [4] is recorded as 88.38%. For the same compound, the “times lower activity towards PC3 than towards Du145” value in [5] (doxorubicin, PC3 vs Du145) is “about 20”.
Turning to `CCCCCCCCCCCC1=C(O)C(=O)C=C(O)C1=O` [Embelin], the IC50 in assay [8] (setting [19]) worked out at 10.5 µg/mL; in assay [8] (setting [20]), 6.48 µg/mL; in [1] (setting [13]), 24.7 µg/mL; in [1] (setting [21]) it was 13.7 µg/mL; in [2] (setting [14]), 6.12 µg/mL; in assay [2] (setting [22]) it was 3.37 µg/mL. Besides, the IC50 in [9] was 21.3 µM; in assay [3] (setting [15]), 10.1 µg/mL; in assay [3] (setting [23]), 4.61 µg/mL; in [10] (setting [24]) it was 16 µg/mL; in assay [10] (setting [25]), 6.77 µg/mL; in [4] (setting [16]) it was 8.02 µg/mL. The IC50 in assay [4] (setting [26]) was 4.18 µg/mL; in assay [5] (castration-resistant prostate cancer cells PC3, read-out: IC50 inhibition of proliferation, PC3), 13.6 µM; in assay [6] (setting [17]) it was 18.9 µg/mL; in [6] (setting [27]), 13.8 µg/mL; in [7] (setting [18]), 9.27 µg/mL; in [7] (setting [28]) it was 5.24 µg/mL. Further, the IC50 in [12] (24 h, read-out: IC50 after 24 h (Park et al.)) was above 200 µM; in assay [12] (48 h, read-out: IC50 after 48 h (Park et al.)), 91.6 µM. Further, the “mean percentage of dead PNT2 cells” value in assay [3] came to 49.00%. In addition, the “mean percentage of dead Du145 cells” value in assay [4] is 61.67%. Also, the “IC50 in HT29 cells (Sumalatha)” value in assay [11] (HT29) is given as 35 µg/mL (≈ 119 µM).
Turning to `CCCCCCCCCCCCCC1=C(O)C(=O)C=C(O)C1=O` [Rapanone], the IC50 in assay [8] (setting [19]) is 6.01 µg/mL; in assay [8] (setting [20]), 4.42 µg/mL; in assay [1] (setting [13]), 16.9 µg/mL; in assay [1] (setting [21]), 11.7 µg/mL; in assay [2] (setting [14]) it was 8.76 µg/mL; in [2] (setting [22]), 5.66 µg/mL. The IC50 in assay [3] (setting [15]) turned out to be 16.7 µg/mL; in assay [3] (setting [23]), 12.7 µg/mL; in assay [10] (setting [24]), 36.3 µg/mL; in [10] (setting [25]), 16.7 µg/mL; in assay [4] (setting [16]), 7.68 µg/mL; in [4] (setting [26]), 5.07 µg/mL. In addition, the IC50 in assay [6] (setting [17]) is 7.84 µg/mL; in assay [6] (setting [27]) it was 5.5 µg/mL; in assay [7] (setting [18]), 6.5 µg/mL; in assay [7] (setting [28]), 4.92 µg/mL; in assay [11] (HT29 (by context), read-out: IC50 reported by Cordero et al.), 29.4 µM. Besides, the “IC50 Caco-2 24 h” value in assay [2] (Caco-2, 24 h incubation) was found to be 8.79 µg/mL. Also, the “mean percentage of dead PNT2 cells” value in assay [3] is listed as 9.30%. The “mean percentage of dead Du145 cells” value in assay [4] is on record as 82.33%. The “IC50 reported by Cordero et al., converted” value in assay [11] (HT29 (by context), 29.4 μM converted to μg/mL) is 9.3 µg/mL (≈ 28.8 µM).
